Experimental data from patent US9949917B2, “Cosmetic composition comprising a combination of a sugar fatty acid ester with a plant extract of Waltheria indica or Pisum sativum for skin whitening” (Cognis IP Management GmbH, priority 2006, dated 2018).

Key:
[1] = test system: Melanocytes (B16 cell line); assay: Melanogenesis inhibition assay: level of melanin (optical density at 475 nm); type: cell-based
Method: Melanocytes (B16 cell line) were inoculated in standard medium of cell culture with foetal calf serum (FCS). After an incubation for 3 days at 37° C. and CO2=5%, growth medium was exchanged for standard medium with a range of concentrations for each ingredient to be tested and a control without ingredient. After an incubation of 3 days, the level of melanin is measured by recording the optical density at 475 nm. After washing the cells by a balanced salt, and homogenisation in a solution of 0.1 M NaOH, the number of viable cells is determined by evaluation of the level of cellular proteins (Bradford's method).
Combinations of ingredients have been tested on the same cell cultures, in parallel with the ingredients alone. The results are expressed in % against control (cell culture medium without ingredient) as a mean+/−SEM (Standard Error of Mean) on 2 or 3 assays, each in triplicate.

[2] = target: T1, Tyrosinase in B16 melanocytes (Mus musculus, UniProt P11344); assay: Tyrosinase activity on melanocytes (DL-DOPA, optical density at 475 nm); type: cell-based
T1 construct: endogenous in cells; host or cells: B16 melanocytes (cell line)
T1 sequence (P11344 19-533): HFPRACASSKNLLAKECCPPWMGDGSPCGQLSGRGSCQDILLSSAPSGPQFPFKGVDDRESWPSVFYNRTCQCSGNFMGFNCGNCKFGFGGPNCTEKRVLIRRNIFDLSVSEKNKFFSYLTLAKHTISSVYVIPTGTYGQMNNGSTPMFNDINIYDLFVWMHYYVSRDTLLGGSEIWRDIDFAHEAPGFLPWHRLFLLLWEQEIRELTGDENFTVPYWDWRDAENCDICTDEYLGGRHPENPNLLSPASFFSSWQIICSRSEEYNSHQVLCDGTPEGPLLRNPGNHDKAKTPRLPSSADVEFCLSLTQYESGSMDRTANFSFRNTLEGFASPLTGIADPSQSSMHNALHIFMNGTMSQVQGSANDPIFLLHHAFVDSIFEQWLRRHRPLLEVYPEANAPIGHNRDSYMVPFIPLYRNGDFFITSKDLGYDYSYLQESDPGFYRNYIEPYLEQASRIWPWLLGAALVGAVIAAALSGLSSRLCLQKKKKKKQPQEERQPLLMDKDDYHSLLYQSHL
Excerpt: Melanocytes (B16 cell line) were inoculated in standard medium of cell culture with foetal calf serum (FCS). […] Combinations of ingredients have been tested on the same cultures, in parallel with ingredients alone. […] The optical density at 475 nm is expressed as a % against control and presented as a mean+/−SEM (standard error of mean) of triplicates.

[3] = sucrose laurate 0.0003% (w/v) alone, 3 assays

Sucrose laurate [Sucrose laurate of example 5]
Rate of melanin in %/control [1, 3]: 56 +/− 18 %/control | Ratio of rate of cellular proteins on rate of melanin [1, 3]: 1.8 | Rate of melanin in %/control ([1]; sucrose laurate 0.0003% (w/v) alone, 3 assays, listed as sucrose laurate): 56+/−18 %/control | Rate of melanin in %/control ([1]; sucrose laurate 0.001% (w/v) alone, 2 assays (Table 5)): 56 +/− 7 %/control | Ratio of rate of cellular proteins on rate of melanin ([1]; sucrose laurate 0.001% (w/v) alone, 2 assays (Table 6)): 1.6 | Rate of melanin in %/control ([1]; sucrose laurate 0.001% (w/v) alone, 3 assays (Table 2)): 54 +/− 16 %/control | Rate of melanin in %/control ([1]; sucrose laurate 0.001% (w/v) alone, 3 assays (Table 2), listed as sucrose laurate): 54+/−16 %/control | Ratio of rate of cellular proteins on rate of melanin ([1]; sucrose laurate 0.001% (w/v) alone, 3 assays (Table 3)): 1.8 | effect on tyrosinase activity in melanocytes (in words) ([2]; Tables 7 and 8): decreases the tyrosinase activity | Tyrosinase activity in %/control ([2]; sucrose laurate 0.005% (w/v) alone): 75 +/− 6 %/control | Tyrosinase activity in %/control ([2]; sucrose laurate 0.01% (w/v) alone): 64 +/− 7 %/control
